Test results published in patent US20260274794A1, “COMPOUNDS, COMPOSITIONS, AND METHOD OF INHIBITING TAU PROTEIN AND ALPHASYNUCLEIN AGGREGATION” (Purdue Research Foundation, priority 2023, published 2026).

Test: Brain and plasma concentration after administration
Type: in vivo
Conditions: 1 mg/kg
Experimental: For compound 8, the brain concentration and plasma concentration ratio is equal to more than 1 for the 3 time points (0.08, 0.5 and 1 hour) where the compound was detected, which is adequate.

O=C(Nc1cccc2[nH]ccc12)c1ccc(F)cc1 [Compound 8, 4-fluoro-N-(1H-indol-4-yl)benzamide]
Half-life: presumed to be short
detection of compound over time: not detected beyond the time point of 60 min
Kp (brain and plasma, 0.08, 0.5 and 1 hour, read-out: brain concentration and plasma concentration ratio): > 1
